Assay results reported in ChEMBL document CHEMBL1201862, “PubChem BioAssay data set” (2004).
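The compound was tested at five concentrations on cells cultured in 96-well plates, with a 48-hour exposure period. The concentration for 50% growth inhibition is given as GI50.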 The source made the active and inactive calls. Cut-off read from the data, not from the text of the source: active = GI50 up to about 1.1 µM and inactive = higher.

Columns and labels:
Test in all cases: NCI tumour cell line growth inhibition, 48 h
LOX IMVI = tested on: LOX IMVI
COLO 205 = tested on: COLO 205
NCI-H522 = tested on: NCI-H522
SN12C = tested on: SN12C
SF-268 = tested on: SF-268
K562 = tested on: K562
U-251 = tested on: U-251
NCI/ADR-RES = tested on: NCI/ADR-RES
MCF7 = tested on: MCF7
OVCAR-8 = tested on: OVCAR-8
NCI-H460 = tested on: NCI-H460
UACC-62 = tested on: UACC-62
HCT-15 = tested on: HCT-15
A549 = tested on: A549
NCI-H226 = tested on: NCI-H226
HT-29 = tested on: HT-29
SK-MEL-28 = tested on: SK-MEL-28
CCRF-CEM = tested on: CCRF-CEM
SNB-19 = tested on: SNB-19
KM12 = tested on: KM12
HL-60 = tested on: HL-60
UACC-257 = tested on: UACC-257
OVCAR-3 = tested on: OVCAR-3
KM-20L2 = tested on: KM-20L2
SF-295 = tested on: SF-295
Malme-3M = tested on: Malme-3M
RXF 393 = tested on: RXF 393
OVCAR-5 = tested on: OVCAR-5
CAKI-1 = tested on: CAKI-1
SNB-75 = tested on: SNB-75
SW-620 = tested on: SW-620
RPMI-8226 = tested on: RPMI-8226
SK-MEL-5 = tested on: SK-MEL-5
M19-MEL = tested on: M19-MEL
A498 = tested on: A498
NCI-H23 = tested on: NCI-H23
HCT-116 = tested on: HCT-116
SK-MEL-2 = tested on: SK-MEL-2
DMS-273 = tested on: DMS-273
OVCAR-4 = tested on: OVCAR-4
SK-OV-3 = tested on: SK-OV-3
HOP-62 = tested on: HOP-62
EKVX = tested on: EKVX
DMS-114 = tested on: DMS-114
SNB-78 = tested on: SNB-78
UO-31 = tested on: UO-31
DLD-1 = tested on: DLD-1
MOLT-4 = tested on: MOLT-4
XF498 = tested on: XF498
HOP-92 = tested on: HOP-92
HCC 2998 = tested on: HCC 2998
IGROV-1 = tested on: IGROV-1
HOP-18 = tested on: HOP-18
SF-539 = tested on: SF-539
M14 = tested on: M14
ACHN = tested on: ACHN
TK-10 = tested on: TK-10
786-0 = tested on: 786-0
LXFL 529 = tested on: LXFL 529
SR = tested on: SR

Compound: O=C1CCCN1CCC/N=c1/cc2n(-c3ccc(Cl)cc3)c3ccccc3nc-2cc1Nc1ccc(Cl)cc1
- GI50 (LOX IMVI): 7.71 µM (inactive)
- GI50 (COLO 205): 1.41 µM (inactive)
- GI50 (NCI-H522): 9.23 µM (inactive)
- GI50 (SN12C): 14.8 µM (inactive)
- GI50 (SF-268): 38.5 µM (inactive)
- GI50 (K562): 9.23 µM (inactive)
- GI50 (U-251): 22.1 µM (inactive)
- GI50 (NCI/ADR-RES): 15.6 µM (inactive)
- GI50 (MCF7): 7.24 µM (inactive)
- GI50 (OVCAR-8): 14.6 µM (inactive)
- GI50 (NCI-H460): 7.06 µM (inactive)
- GI50 (UACC-62): 11.5 µM (inactive)
- GI50 (HCT-15): 4.52 µM
- GI50 (A549): 15.7 µM (inactive)
- GI50 (NCI-H226): 15.7 µM (inactive)
- GI50 (HT-29): 2.13 µM (inactive)
- GI50 (SK-MEL-28): 23.8 µM (inactive)
- GI50 (CCRF-CEM): 12.6 µM (inactive)
- GI50 (SNB-19): 34.7 µM (inactive)
- GI50 (KM12): 13.4 µM (inactive)
- GI50 (HL-60): 3.47 µM (inactive)
- GI50 (UACC-257): 11.9 µM (inactive)
- GI50 (OVCAR-3): 2.09 µM (inactive)
- GI50 (KM-20L2): 2.42 µM (inactive)
- GI50 (SF-295): 19.3 µM (inactive)
- GI50 (Malme-3M): 16.5 µM (inactive)
- GI50 (RXF 393): 1.78 µM (inactive)
- GI50 (OVCAR-5): 17 µM (inactive)
- GI50 (CAKI-1): 27 µM (inactive)
- GI50 (SNB-75): 25.6 µM (inactive)
- GI50 (SW-620): 14.5 µM (inactive)
- GI50 (RPMI-8226): 5.98 µM (inactive)
- GI50 (SK-MEL-5): 13 µM (inactive)
- GI50 (M19-MEL): 2.32 µM (inactive)
- GI50 (A498): 19.5 µM (inactive)
- GI50 (NCI-H23): 8.26 µM (inactive)
- GI50 (HCT-116): 7.26 µM (inactive)
- GI50 (SK-MEL-2): 13.1 µM (inactive)
- GI50 (DMS-273): 15.6 µM (inactive)
- GI50 (OVCAR-4): 5.57 µM (inactive)
- GI50 (SK-OV-3): 46.7 µM (inactive)
- GI50 (HOP-62): 12.9 µM (inactive)
- GI50 (EKVX): 13.1 µM (inactive)
- GI50 (DMS-114): 6.38 µM (inactive)
- GI50 (SNB-78): 18.9 µM (inactive)
- GI50 (UO-31): 6.73 µM (inactive)
- GI50 (DLD-1): 4.81 µM (inactive)
- GI50 (MOLT-4): 3.66 µM (inactive)
- GI50 (XF498): 19.7 µM (inactive)
- GI50 (HOP-92): 8.17 µM (inactive)
- GI50 (HCC 2998): 5.18 µM (inactive)
- GI50 (IGROV-1): 2.75 µM (inactive)
- GI50 (HOP-18): 24.8 µM (inactive)
- GI50 (SF-539): 12.7 µM (inactive)

Compound: O=C(CCCCCCCCC(=O)OCC1OC(n2cnc3c(=O)[nH]cnc32)C(O)C1O)OCC1OC(n2cnc3c(=O)[nH]cnc32)C(O)C1O (stereo not given)
- GI50 (LOX IMVI): > 100 µM (inactive)
- GI50 (COLO 205): > 100 µM (inactive)
- GI50 (NCI-H522): > 100 µM (inactive)
- GI50 (SN12C): > 100 µM (inactive)
- GI50 (SF-268): > 100 µM (inactive)
- GI50 (K562): > 100 µM (inactive)
- GI50 (U-251): > 100 µM (inactive)
- GI50 (M14): > 100 µM (inactive)
- GI50 (OVCAR-8): > 100 µM (inactive)
- GI50 (NCI-H460): > 100 µM (inactive)
- GI50 (UACC-62): > 100 µM (inactive)
- GI50 (HCT-15): > 100 µM
- GI50 (A549): > 100 µM (inactive)
- GI50 (ACHN): > 100 µM (inactive)
- GI50 (NCI-H226): > 100 µM (inactive)
- GI50 (HT-29): > 100 µM (inactive)
- GI50 (SK-MEL-28): > 100 µM (inactive)
- GI50 (CCRF-CEM): > 100 µM (inactive)
- GI50 (SNB-19): > 100 µM (inactive)
- GI50 (KM12): > 100 µM (inactive)
- GI50 (HL-60): > 100 µM (inactive)
- GI50 (UACC-257): > 100 µM (inactive)
- GI50 (OVCAR-3): > 100 µM (inactive)
- GI50 (KM-20L2): > 100 µM (inactive)
- GI50 (SF-295): > 100 µM (inactive)
- GI50 (Malme-3M): > 100 µM (inactive)
- GI50 (RXF 393): > 100 µM (inactive)
- GI50 (OVCAR-5): > 100 µM (inactive)
- GI50 (CAKI-1): > 100 µM (inactive)
- GI50 (SNB-75): > 100 µM (inactive)
- GI50 (SW-620): > 100 µM (inactive)
- GI50 (RPMI-8226): > 100 µM (inactive)
- GI50 (SK-MEL-5): > 100 µM (inactive)
- GI50 (M19-MEL): > 100 µM (inactive)
- GI50 (A498): > 100 µM (inactive)
- GI50 (NCI-H23): > 100 µM (inactive)
- GI50 (HCT-116): > 100 µM (inactive)
- GI50 (SK-MEL-2): > 100 µM (inactive)
- GI50 (TK-10): > 100 µM (inactive)
- GI50 (DMS-273): > 100 µM (inactive)
- GI50 (OVCAR-4): > 100 µM (inactive)
- GI50 (SK-OV-3): > 100 µM (inactive)
- GI50 (HOP-62): > 100 µM (inactive)
- GI50 (EKVX): > 100 µM (inactive)
- GI50 (DMS-114): > 100 µM (inactive)
- GI50 (SNB-78): > 100 µM (inactive)
- GI50 (UO-31): > 100 µM (inactive)
- GI50 (DLD-1): > 100 µM (inactive)
- GI50 (MOLT-4): > 100 µM (inactive)
- GI50 (XF498): > 100 µM (inactive)
- GI50 (HOP-92): > 100 µM (inactive)
- GI50 (HCC 2998): > 100 µM (inactive)
- GI50 (IGROV-1): > 100 µM (inactive)
- GI50 (HOP-18): > 100 µM (inactive)
- GI50 (786-0): > 100 µM (inactive)
- GI50 (SF-539): > 100 µM (inactive)

Compound: C[n+]1ccc(Nc2ccc(NC(=O)c3ccc(Nc4cc[n+](C)c5ccc([N+](=O)[O-])cc45)cc3[N+](=O)[O-])cc2)cc1
- GI50 (LOX IMVI): > 39.7 µM (inactive)
- GI50 (LXFL 529): 15.8 µM (inactive)
- GI50 (COLO 205): 22.5 µM (inactive)
- GI50 (NCI-H522): 13.8 µM (inactive)
- GI50 (SN12C): 48.8 µM (inactive)
- GI50 (SF-268): 30.9 µM (inactive)
- GI50 (K562): 20.8 µM (inactive)
- GI50 (U-251): 21.7 µM (inactive)
- GI50 (NCI/ADR-RES): > 52.4 µM (inactive)
- GI50 (M14): 63.4 µM (inactive)
- GI50 (OVCAR-8): 22.8 µM (inactive)
- GI50 (NCI-H460): 23.7 µM (inactive)
- GI50 (UACC-62): 31.3 µM (inactive)
- GI50 (HCT-15): 61.2 µM
- GI50 (A549): 22 µM (inactive)
- GI50 (ACHN): > 100 µM (inactive)
- GI50 (NCI-H226): 50.4 µM (inactive)
- GI50 (HT-29): > 100 µM (inactive)
- GI50 (SK-MEL-28): 28.4 µM (inactive)
- GI50 (CCRF-CEM): 33.2 µM (inactive)
- GI50 (SNB-19): > 59.2 µM (inactive)
- GI50 (KM12): 47.8 µM (inactive)
- GI50 (UACC-257): 23.6 µM (inactive)
- GI50 (OVCAR-3): 17.8 µM (inactive)
- GI50 (KM-20L2): > 100 µM (inactive)
- GI50 (SF-295): 27.8 µM (inactive)
- GI50 (SR): > 100 µM (inactive)
- GI50 (Malme-3M): 19.5 µM (inactive)
- GI50 (RXF 393): > 83.8 µM (inactive)
- GI50 (OVCAR-5): > 100 µM (inactive)
- GI50 (CAKI-1): > 73.1 µM (inactive)
- GI50 (SNB-75): > 60.1 µM (inactive)
- GI50 (RPMI-8226): 13.3 µM (inactive)
- GI50 (SK-MEL-5): 23.3 µM (inactive)
- GI50 (M19-MEL): 18.3 µM (inactive)
- GI50 (A498): 64 µM (inactive)
- GI50 (NCI-H23): 29.7 µM (inactive)
- GI50 (HCT-116): 30.5 µM (inactive)
- GI50 (SK-MEL-2): 50.1 µM (inactive)
- GI50 (TK-10): > 100 µM (inactive)
- GI50 (DMS-273): 27.2 µM (inactive)
- GI50 (OVCAR-4): 34.5 µM (inactive)
- GI50 (SK-OV-3): 57.8 µM (inactive)
- GI50 (HOP-62): 47.1 µM (inactive)
- GI50 (EKVX): 47.6 µM (inactive)
- GI50 (DMS-114): 0.692 µM (active)
- GI50 (UO-31): 47.6 µM (inactive)
- GI50 (DLD-1): > 86.7 µM (inactive)
- GI50 (MOLT-4): 35.3 µM (inactive)
- GI50 (XF498): 33.5 µM (inactive)
- GI50 (HOP-92): 26.9 µM (inactive)
- GI50 (IGROV-1): > 100 µM (inactive)
- GI50 (HOP-18): 20.5 µM (inactive)
- GI50 (786-0): 27.4 µM (inactive)
- GI50 (SF-539): 27 µM (inactive)
